Test results reported in ChEMBL document CHEMBL5137098, “Discovery of Substituted Di(pyridin-2-yl)-1,2,4-thiadiazol-5-amines as Novel Macrofilaricidal Compounds for the Treatment of Human Filarial Infections” (J Med Chem, 2022).

Assays:
[1] = Mutagenicity in Salmonella typhimurium TA1535 in absence of liver S9 fraction by AMES test; assay type: toxicity; details: salmonella enterica subsp. enterica serovar typhimurium
[2] = tested on: Litomosoides sigmodontis; test: Antiparasitic activity against Litomosoides sigmodontis infected in Meriones assessed as reduction in worm burden at 15 mg/kg, sc BID administered for 7 days; assay type: functional; parameters: scale not given: the % may be the effect or the level left; details: time 7 day
[3] = Mutagenicity in Salmonella typhimurium TA97 in absence of liver S9 fraction by AMES test; assay type: toxicity; details: salmonella enterica subsp. enterica serovar typhimurium
[4] = Mutagenicity in Salmonella typhimurium TA98 in presence of liver S9 fraction by AMES test; assay type: toxicity, subcellular; details: salmonella enterica subsp. enterica serovar typhimurium
[5] = Mutagenicity in Salmonella typhimurium TA100 in presence of liver S9 fraction by AMES test; assay type: toxicity, subcellular; details: salmonella enterica subsp. enterica serovar typhimurium
[6] = Mutagenicity in Escherichia coli WP2 uvrA in presence of liver S9 fraction by AMES test; assay type: toxicity, subcellular
[7] = Mutagenicity in Salmonella typhimurium TA98 in absence of liver S9 fraction by AMES test; assay type: toxicity; details: salmonella enterica subsp. enterica serovar typhimurium
[8] = Mutagenicity in Salmonella typhimurium TA100 in absence of liver S9 fraction by AMES test; assay type: toxicity; details: salmonella enterica subsp. enterica serovar typhimurium
[9] = Mutagenicity in Escherichia coli WP2 uvrA in absence of liver S9 fraction by AMES test; assay type: toxicity
[10] = Mutagenicity in Salmonella typhimurium TA1535 in presence of liver S9 fraction by AMES test; assay type: toxicity, subcellular; details: salmonella enterica subsp. enterica serovar typhimurium
[11] = Mutagenicity in Salmonella typhimurium TA97 in presence of liver S9 fraction by AMES test; assay type: toxicity, subcellular; details: salmonella enterica subsp. enterica serovar typhimurium
[12] = tested on: TK6; test: Cytotoxicity in human TK6 cells in presence of Aroclor 1254-induced rat liver S9 fraction by micronucleus test; assay type: toxicity, cell-based
[13] = Metabolic stability in human liver S9 fraction assessed as compound remaining at 3 uM measured at 60 mins by LC-MS/MS analysis; assay type: ADME, subcellular; details: read-out: Stability
[14] = Metabolic stability in rat liver S9 fraction assessed as compound remaining at 3 uM measured at 60 mins by LC-MS/MS analysis; assay type: ADME, subcellular; details: read-out: Stability

remaining at 1 h, 3 µM [13] [%]	remaining at 1 h, 3 µM [14] [%]	Structure (SMILES)	Activity [1]	Activity [2] [%]	Activity [3]	Activity [4]	Activity [5]	Activity [6]	Activity [7]	Activity [8]	Activity [9]	Activity [10]	Activity [11]	Activity [12]
		CC(=O)N(C)c1cccnc1Nc1nc(-c2ccc(OC(C)C)cn2)ns1	Non-Toxic	58.9	Non-Toxic	Non-Toxic	Non-Toxic	Non-Toxic	Non-Toxic	Non-Toxic	Non-Toxic	Non-Toxic	Non-Toxic	
94	100	Cc1nccnc1Nc1nc(-c2ccc(OC(C)C)cn2)ns1												Non-Toxic
